Entries after “also recorded” stand apart in the source; their conditions may differ.
Assays:
[1] = In vivo pharmacokinetics of Compound B in SCID mice
Source text: Blood samples were collected from the saphenous vein of mice at various time points after IP injection of the compound into the mice and then analyzed using HPLC-Mass Spectrometry.

[2] = tested on: plasmid DNA [pGEM 3Zf(−)]; experiment: Agarose gel electrophoresis of ionizing-radiation-induced damage to plasmid DNA; assay type: biochemical, Escherichia Coli JM 109; details: 200 μM compound; two-UV-photon ionizing radiation of water; versus pure water
Source text: Ultrapure water for life science with a resistivity of >18.2 MΩ/cm and TOC<1 ppm obtained freshly from a Barnstead Nanopure water system was used. Dibromo-diamino-benzene (Dibromo-phenylenediamine, Compound B) was obtained from TCI-America, while other chemicals and buffer compositions were obtained from Sigma-Aldrich. Plasmid DNA [pGEM 3Zf(−), […]] was extracted from Escherichia Coli JM 109 and purified using QIAprep Kit (Qiagen).
The pump beam at 322 nm, identical to that for fs-TRLS measurements, was used to produce radicals via two-photon excitation of water in DNA solutions. The laser beam was focused into a quartz cell containing 3.0 μg of DNA in 200 μL of buffer solutions. The solutions were stirred during irradiation to produce uniform DNA damage throughout the samples. Aliquots equivalent to 96 ng DNA were removed from the sample cell in various irradiation times for gel electrophoresis. All aliquots were analyzed with a standard agarose gel electrophoresis method, namely, on 1% neutral TAE agarose gel in TAE running buffer. The gel was prestained with 0.5 μg/ml ethidium bromide. […] They were quantified with an AlphaEase FC software.

[3] = tested on: human cervical cancer (ME-180) cells; experiment: In vitro radiosensitizing effect, MTT assay 6 days after X-ray, ME-180; assay type: cell-based
Source text: (§1) Dibromo-diamino-benzene (Dibromo-phenylenediamine, Compound B) was obtained from TCI—America. Diiodo-diaminobenzene (Compound C) were synthesized, purified and crystallized in our laboratory, and the structures and purity were examined by NMR and mass spectrometry. MEM and fetal bovine serum (FBS), penicillin G and streptomycin were obtained from Hyclone Laboratories (UT, USA). Stock solution of cisplatin was freshly prepared in ultrapure water or saline, and stock solutions of Compounds A, B, C, D were prepared in pure ethanol, where the final concentration of ethanol was ≦1% when treated to cells.
A human skin diploid fibroblast (GM05757 cell line) was obtained from the Coriell Cell Repository directly, while the human cervical cancer cell line (HeLa, ATCC#: CCL-2; or ME-180), human ovarian cancer cell line (NIH:OVCAR-3, ATCC#: HTB-161) and human lung cancer cell line (A549, ATCC#: CCL-185™), together with RPMI 1640, F-12K, McCoy's 5 A and L-15 culture media, were obtained from the American Type Culture Collection (ATCC) directly. Fetal bovine serum (FBS) was obtained from Hyclone Laboratories (UT, USA). The GM05757 normal cells and HeLa cells were cultivated with MEM (Hyclone) supplemented with 10% FBS, 100 units/mL penicillin G and 100 μg/mL streptomycin (Hyclone). The complete growth media for ME-180, NIH:OVCAR-3, A549 and MDA-MB-231 cells were the ATCC-formulated McCoy's 5 A Medium supplemented with 10% FBS, RPMI 1640 medium with 20%, F-12K medium with 10% FBS, and L-15 Medium (Leibovitz) with 10% FBS, respectively. The cells were maintained at 37° C. in a humidified atmosphere containing 5% CO2.
(§2) The radiosensitizing effects of RSCs on cell viability were determined by the 3-[4,5-dimethylthiazol-2-yl]-2,5-diphenyl tetrazoliumbromide (MTT) assay. Cells were cultured in 96-well plates (5×10^3 cells/well) for 24 h. The culture medium was replaced by fresh culture medium and incubated for 12 h with varying drug concentrations. The cells were then irradiated by 225 kV X-ray (PRECISION X-RAD IR 225) at a dose rate of 2 Gy/min with various X-ray doses. After irradiation, the cells were incubated for 6 days. The MTT assay of cell viability was then conducted. Briefly, 100 μl new medium without phenol red containing 1.2 mM MTT (sigma) (i.e., adding 10 μl 12 mM MTT stock solution in PBS) were added to each well and incubated for 4 h. The medium was then removed, and the formazan crystals solubilized by 100 μL/well DMSO (or alternatively by 100 μl/well SDS and incubated for another 4 h). The surviving fraction was determined by measuring the absorbance at 540 nm (570 nm for SDS solubilization) using a Multiskan Spectrum UV/Vis microplate reader (Thermo Scientific), which is directly proportional to the number of viable cells.

[4] = tested on: human normal cells (GM05757); experiment: In vitro toxicity in human normal cells, 72-hr treatment, MTT assay; assay type: cell-based; details: GM05757, 72-hr treatment, without ionizing radiation, 0-50 μM cisplatin, 0-200 μM compounds
Source text: as §1, with “TCI-America.” for “TCI—America.”
A human skin diploid fibroblast (GM05757 cell line) was obtained from the Coriell Cell Repository directly. Fetal bovine serum (FBS) was obtained from Hyclone Laboratories (UT, USA). The GM05757 normal cells were cultivated with MEM (Hyclone) supplemented with 10% FBS, 100 units/mL penicillin G and 100 μg/mL streptomycin (Hyclone). The cells were maintained at 37° C. in a humidified atmosphere containing 5% CO2.
as §2, with “for 72” for “for 12”, “concentrations.” for “concentrations. The cells were then irradiated by 225 kV X-ray (PRECISION X-RAD IR 225) at a dose rate of 2 Gy/min with various X-ray doses. After irradiation, the cells were incubated for 6 days.”

Nc1cc(Br)c(Br)cc1N [Compound B, 4,5-dibromo-1,2-phenylenediamine]
detection of compound in blood/plasma ([1]; after IP injection): significant levels; also recorded: detected in the plasma
elimination from the body ([1]; after IP injection): well expelled from the body within a few hours
time of highest concentration after i.p. injection ([1]; plasma/blood, IP 0-7 mg/kg, HPLC-Mass Spectrometry): about 20 minutes
time at which concentration dropped to nearly zero ([1]; plasma/blood, after i.p. injection): about 3 hr
radiation-induced DNA double-strand breaks (DSBs) [2]: significantly enhanced; also recorded: significant enhancement of DSBs
enhancement of radiosensitivity of cancer cells to X-ray ([3]; ME-180, 12-hr treatment, 0-10 Gy 225 keV X-ray, MTT at 6 days): significant enhancement in the radiosensitivity
killing of cancer cells ([3]; ME-180, 50 Gy x-ray with about 100 μM compound, about 20% survived without any RSC): early all cancer cells were killed
toxicity toward human normal cells [4]: essentially no toxicity; also recorded: little toxicity up to 200 μM
